Consider 34 compounds from US12509438B2, “Pyrazole derivative” (Aptabio Therapeutics Inc., priority 2020, dated 2025).

The structures appear in SMILES notation. Some results are limits rather than exact numbers.

For the first experiment, the system named is STAM mice. As to the kind of experiment: Non-alcoholic steatohepatitis and liver fibrosis STAM mouse model. The experiment is classed as in vivo. As to conditions: STAM+TEL; 10 mg/kg orally once a day for 28 days; STAM+vehicle 0.93±0.36, normal control 0.29±0.06. From the text: In order to confirm the therapeutic effect for non-alcoholic steatohepatitis and liver fibrosis of the synthetic example compound of the present invention, non-alcoholic steatohepatitis and liver fibrosis-induced STAM mice (6-week-old, female, SMC laborlabories Inc, Japan) were used. All the mice were maintained under a standard condition. The experiment was progressed by dividing the experimental animals into a normal control group in which distilled water was orally administered (negative control), STAM group in which non-alcoholic steatohepatitis and fibrosis were induced (vehicle control), an experimental group in which telmisartane of 10 mg/kg was orally administered daily as a STAM positive control group (STAM+TEL), and an experimental group in which the synthetic example compound of 3 or 10 mg/kg was orally administered daily (STAM+Synthetic example) as 7 mice per group. The telmisartane and synthetic example compound were orally administered once a day for 28 days.
After completing the test, the animals were anesthetized and liver tissue was extracted for each individual, and blood was taken for examination. The weight of the liver tissue was measured and it was photographed. The tissue was fixed in 10% buffered neutral formalin solution. […]
Consider `CCCc1nc2c(C)cc(-c3nc4ccccc4n3C)cc2n1Cc1ccc(-c2ccccc2C(=O)O)cc1` [telmisartane], for which the “liver fibrosis area (Sirius red staining)” value stood at 0.44±0.15.

Still in this experiment, the particulars now being: STAM+TEL; 10 mg/kg orally once a day for 28 days; STAM+vehicle 4.8±0.7, normal control 0.0±0.0.
As for `CCCc1nc2c(C)cc(-c3nc4ccccc4n3C)cc2n1Cc1ccc(-c2ccccc2C(=O)O)cc1` [telmisartane], the “improved NAS score” value was 2.8±0.7.

Another experiment deals with LX-2 cells. As to the kind of experiment: ROS production in LX-2 cells (L-012 or DCF-DA). The class given is cell-based, human. Particulars: FIG. 1. The source says:
(§1) In order to confirm an effect of the synthetic example compounds on ROS production from fibroblasts and specific substrate cells, ROS production was induced by stimulation of PMA (phorbol 12-myristate 13-acetate), TGF-β1, palmitate or high concentration-glucose, or the like for HL-60 cells (Korean Cell Line Bank), NHLF(normal human lung fibroblast, Lonza), LX-2 (human hepatic stellate cells, Sigma), ARPE19 (human retinal pigment epithelial cell, ATCC), KEL-FIB (Keloid fibroblast, ATCC) cells differentiated into neutrophil cells by treatment of DMSO, and the inhibitory effect of ROS production of the synthetic example compounds was observed under this condition.
(§2) NHLF (normal human lung fibroblast, Lonza), LX-2 (human hepatic stellate cells, Sigma), ARPE19 (human retinal pigment epithelial cell, ATCC), KEL-FIB (keloid fibroblast, ATCC) cells were suspended in a culture medium comprising 10% FBS and aliquoted in a 96 well plate, and then cultured under the condition of 5% CO2, 37° C. for 24 hours. The synthetic example compound was pretreated from 30 minutes to 1 hour, and then a ROS stimulus was treated to each well comprising cells and a drug. After additional culturing for 48 hours, the level of ROS production was confirmed by using L-012 or DCF-DA.
As for `Oc1c2c(nn1-c1ccccn1)CCN(Cc1ccccc1)C2` [Synthetic example 34, 5-benzyl-2-(pyridin-2-yl)-4,5,6,7-tetrahydro-2H-pyrazolo[4,3-c]pyridin-3-ol], the “inhibition of ROS production induced by PMA” value is recorded as “inhibited ROS production”.

The test system of another experiment is bleomycin-induced pulmonary fibrosis mouse model. As to the kind of experiment: Bleomycin-induced pulmonary fibrosis mouse model. The experiment is classed as in vivo. As to conditions: BLM+NIN; 100 mg/kg orally once a day for 28 days; BLM group 5.4±0.5, negative control 0.4±0.55. The method, then:
As a bleomycin-induced pulmonary fibrosis mouse model, 5-week-old, C57BL/6J male mice weighing 20 g before and after were used. The experiment was progressed by dividing the experimental animals into a control group in which distilled water was orally administered (Control), a group in which pulmonary fibrosis was caused by bleomycin (BLM), an experimental group in which bleomycin was administered and in 3 weeks, as a positive control group, nintedanib of 100 mg/kg was orally administered daily (BLM+NIN), and an experimental group in which bleomycin was administered and in 3 weeks, the synthetic example compound of the present invention of 3 mg/kg was orally administered daily (BLM+Synthetic example) as 7 mice per group.
The nintedanib and synthetic example compound was orally administered once a day for 28 days. […]
Comprehensively, based on the above histological and immunological results, by quantifying with improved Ashcroft scores (modified Ashcroft scale) widely used in the pulmonary fibrosis tissue analysis field, the severity of pulmonary fibrosis of each of the synthetic example compound administration groups (BLM+Synthetic example) compared to the negative control group (control), experimental group (BLM), positive control group was evaluated. […] For the experimental result, the mean and standard deviation were calculated using SPSS ver. […]
For the compound `COC(=O)c1ccc2c(c1)NC(=O)/C2=C(\Nc1ccc(N(C)C(=O)CN2CCN(C)CC2)cc1)c1ccccc1` [nintedanib], the “improved Ashcroft score (modified Ashcroft scale)” value was determined as 5.0±0.

A further experiment has as its system differentiated HL-60 cells. As to the kind of experiment: ROS production induced by PMA in HL-60 cells differentiated into neutrophil cells (L-012 luminescence). The experiment is classed as cell-based, human. Particulars: Homo sapiens, HL-60, synthetic example compounds 0.5 uM, read-out: ROS production inhibitory effect.
Source text: as §1
HL-60 cells (human leukemia cells, ATCC) was suspended in a medium comprising 1.25% DMSO (RPMI+10% FBS) and cultured under the condition of 5% CO2, 37° C. for 6 days to induce differentiation into neutrophil cells. […] Then, PMA of […] was treated in each well comprising cells and a drug to induce production of ROS, and this ROS production was measured by observing the level of luminescence of each well using 100 μM L-012.
On to `Oc1c2c(nn1-c1ccccn1)CCCC2` [compound 1], for which the inhibition at 0.5 µM is less than 30%. As for `Oc1c2c(nn1-c1ccc(C(F)(F)F)cn1)CCCC2` [compound 2], the inhibition at 0.5 µM was less than 30%. For the compound `Oc1c2c(nn1-c1ccccn1)CN(Cc1ccccc1)CC2` [compound 3], the inhibition at 0.5 µM was in the range of 50 to 70%.

As to `Oc1c2c(nn1-c1ccc(C(F)(F)F)cn1)CN(Cc1ccccc1)CC2` [compound 4], the inhibition at 0.5 µM was in the range of 30 to 50%. Turning to `Oc1c2c(nn1-c1ccccn1)CN(Cc1ccc(F)cc1)CC2` [compound 6], the inhibition at 0.5 µM fell in the range of 30 to 50%. Same read-out and setting: the result for `Cc1ccc(CN2CCc3c(nn(-c4ccccn4)c3O)C2)cc1` [compound 7] reads 30 to 50%. As to `N#Cc1ccc(CN2CCc3c(nn(-c4ccccn4)c3O)C2)cc1` [compound 8], the inhibition at 0.5 µM was in the range of 50 to 70%.

In the case of `Oc1c2c(nn1-c1ccccn1)CN(Cc1cc(F)cc(F)c1)CC2` [compound 9], the inhibition at 0.5 µM lay within 50 to 70%. For the compound `Oc1c2c(nn1-c1ccccn1)CN(Cc1cccc(C(F)(F)F)c1)CC2` [compound 10], the inhibition at 0.5 µM was in the range of 30 to 50%.

With `CCN1CCc2c(nn(-c3ccccn3)c2O)C1` [compound 15], the inhibition at 0.5 µM was less than 30%. On to `C#CCN1CCc2c(nn(-c3ccccn3)c2O)C1` [compound 16], for which the inhibition at 0.5 µM was less than 30%.

As to `O=C(NC1CCCCC1)N1CCc2c(nn(-c3ccccn3)c2O)C1` [compound 23], the inhibition at 0.5 µM is less than 30%. On the same count and under the same terms, the result for `O=S(=O)(c1ccccc1)N1CCc2c(nn(-c3ccccn3)c2O)C1` [compound 26] reads 50 to 70%; that for `O=C(OCc1ccc([N+](=O)[O-])cc1)N1CCc2c(nn(-c3ccccn3)c2O)C1` [compound 32], 30 to 50%.

In the case of `Oc1c2c(nn1-c1ccccn1)CCN(Cc1ccccc1)C2` [compound 34], the inhibition at 0.5 µM is 30 to 50%. For `Oc1c2c(nn1-c1ccc(Cl)cn1)CN(Cc1ccccc1)CC2` [compound 35], the inhibition at 0.5 µM was in the range of 50 to 70%. Still for that read-out and setting: the result for `O=C(O)c1ccc(-n2nc3c(c2O)CCN(Cc2ccccc2)C3)cc1` [compound 36] reads greater than 70%; that for `Oc1c2c(nn1-c1ccc(Br)cc1)CN(Cc1ccccc1)CC2` [compound 37], greater than 70%; that for `Oc1c2c(nn1-c1ccccc1)CN(Cc1ccccc1)CC2` [compound 38], greater than 70%. With `Oc1c2c(nn1-c1ccc(C(F)(F)F)cn1)CCN(Cc1ccccc1)C2` [compound 39], the inhibition at 0.5 µM is less than 30%. Turning to `Oc1c2c(nn1-c1ccccc1)CCN(Cc1ccccc1)C2` [compound 40], the inhibition at 0.5 µM was 50 to 70%. As for `Oc1c2c(nn1-c1ccc(Br)cc1)CCN(Cc1ccccc1)C2` [compound 41], the inhibition at 0.5 µM is 50 to 70%.

Consider `Oc1c2c(nn1-c1ccccc1Cl)CCN(Cc1ccccc1)C2` [compound 42], for which the inhibition at 0.5 µM was less than 30%. Still for that read-out and setting: the result for `Oc1c2c(nn1-c1ccc(C(F)(F)F)cn1)CCN(Cc1cccc(C(F)(F)F)c1)C2` [compound 50] reads 30 to 50%; that for `N#Cc1ccc(CN2CCc3nn(-c4ccccn4)c(O)c3C2)cc1` [compound 75], 50 to 70%. In the case of `N#Cc1ccc(CN2CCc3nn(-c4ccc(C(F)(F)F)cn4)c(O)c3C2)cc1` [compound 76], the inhibition at 0.5 µM lay within 30 to 50%. Regarding `Oc1c2c(nn1-c1ccccn1)CCN(Cc1cccc(C(F)(F)F)c1)C2` [compound 77], the inhibition at 0.5 µM lay in the range of 30 to 50%. Take `Oc1c2c(nn1-c1ccccn1)CCN(Cc1cc3ccccc3cn1)C2` [compound 79]: the inhibition at 0.5 µM is 50 to 70%. On to `Oc1c2c(nn1-c1ccc(C(F)(F)F)cn1)CCN(Cc1cc3ccccc3cn1)C2` [compound 80], for which the inhibition at 0.5 µM lay in the range of 50 to 70%. The same measure, in the same setting: the result for `O=C(O)c1ccc(-n2nc3c(c2O)CN(Cc2ccccc2)CC3)cc1` [compound 81] reads greater than 70%.

Still in this experiment, the particulars now being: synthetic example compounds 0.5 uM, 0.5 µM.
`Oc1c2c(nn1-c1ccc(C(F)(F)F)cn1)CCN(Cc1cccc(C(F)(F)F)c1)C2` [compound 78]: the “ROS production inhibitory effect” value is listed as “*** (***: 50 < <70%)”.

A further experiment relates to NHLF cells. As to the kind of experiment: ROS production in NHLF cells (L-012 or DCF-DA). The experiment is classed as cell-based, human. Particulars: FIG. 1.
Source text: as §1, §2
For `Oc1c2c(nn1-c1ccccn1)CCN(Cc1ccccc1)C2` [Synthetic example 34, 5-benzyl-2-(pyridin-2-yl)-4,5,6,7-tetrahydro-2H-pyrazolo[4,3-c]pyridin-3-ol], the “inhibition of ROS production induced by PMA” value is recorded as “inhibited ROS production”.
